Data on two compounds can be found in publication PMC12928700, “Structure of the human CTF18−RFC clamp loader bound to PCNA” (eLife, 2026).

Assay [1] deals with T1, CTF18–RFC bound to PCNA (ADP site in RFC3) (Homo sapiens, UniProt P40938).
T1 construct: same complex as P1; RFC3 with N-terminal His6 tag, insect cells; Ctf8/Dcc1 module not resolved in map; with Chromosome transmission fidelity protein 18 homolog; Replication factor C subunit 2; Replication factor C subunit 4; Replication factor C subunit 5; Sister chromatid cohesion protein DCC1; Chromosome transmission fidelity protein 8 homolog; Proliferating cell nuclear antigen
Nature of the assay: cryo-EM structure ([…] Å without Mg2+; […] Å with Mg2+). Format: binding. The settings on record: ADP in AAA+ site of RFC3, not added, probably co-purified; seen with and without Mg2+.

Assay [2] addresses T2, CTF18–RFC bound to PCNA (ATP sites in Ctf18, RFC2, RFC5) (Homo sapiens, UniProt P35250+P40937+Q8WVB6).
T2 construct: gene CHTF18; seven-subunit complex from insect cells (MultiBac, Sf9/Hi5); N-terminal twin-Strep-TEV tag (Ctf18, RFC2, RFC4) and N-terminal His6 tag (RFC3, RFC5, Dcc1, Ctf8), TEV treated; PCNA from E. coli; Ctf8/Dcc1 module not resolved in map; with Replication factor C subunit 4; Replication factor C subunit 3; Sister chromatid cohesion protein DCC1; Chromosome transmission fidelity protein 8 homolog; Proliferating cell nuclear antigen
Described as above. The following applies: ATP in AAA+ sites of Ctf18 (adenine density poor), RFC2 and RFC5; RFC4 empty; 0.5 mM ATP, pH 7.5, without Mg2+ or with 5 mM Mg2+ (Mg2+ seen in RFC2 and RFC5); autoinhibited state, closed PCNA. Format: binding.

In the case of `Nc1ncnc2c1ncn2[C@@H]1O[C@H](COP(=O)(O)OP(=O)(O)O)[C@@H](O)[C@H]1O` [ADP], in assay [1], the “cryo-EM structure (2.9 Å without Mg2+; 3.2 Å with Mg2+)” value is given as “while ADP appears to engage RFC3”.
For `Nc1ncnc2c1ncn2[C@@H]1O[C@H](COP(=O)(O)OP(=O)(O)OP(=O)(O)O)[C@@H](O)[C@H]1O` [ATP], the “cryo-EM structure (2.9 Å without Mg2+; 3.2 Å with Mg2+)” value in assay [2] is “ATP is bound to subunits Ctf18, RFC2, and RFC5, while ADP appears to engage RFC3”.
